Reference: patent publication US4691046A, “Butanedioic acid mono [(2-dimethylamino] ethyl ester)succinate” (Institut Organicheskoi Khimii Ordena Lenina I Ordena …, priority 1986, dated 1987)

Experiments:
[1] = test system: Glucose-6-phosphatedehydrogenase; assay: Activity of glucose-6-phosphatedehydrogenase in myocardium upon low-temperature treatment; type: in vivo, mice; settings: 2.5 hours at -14° C.; 80 mg/kg (invention) or 64 mg/kg (ester); control 57.3 ± 1.3
Description: (§2) The preparations were administered one hour before the standard low-temperature treatment (-14° C.) in doses of 80 mg/kg of the compound according to the present invention and 64 mg/kg of the prior art compound-butanedioic acid mono[(2-dimethylamino)-ethyl ester].

Pyruvatedehydrogenase = assay: Activity of pyruvatedehydrogenase in myocardium upon low-temperature treatment; type: in vivo, mice; settings: 2.5 hours at -14° C.; 80 mg/kg (invention) or 64 mg/kg (ester); control 56.6 ± 1.1
Description: as §2

Isocitratedehydrogenase = assay: Activity of isocitratedehydrogenase in myocardium upon low-temperature treatment; type: in vivo, mice; settings: 2.5 hours at -14° C.; 80 mg/kg (invention) or 64 mg/kg (ester); control 49.5 ± 1.2
Description: as §2

NADH2 --dehydrogenase = assay: Activity of NADH2-dehydrogenase in myocardium upon low-temperature treatment; type: in vivo, mice; settings: 2.5 hours at -14° C.; 80 mg/kg (invention) or 64 mg/kg (ester); control 69.8 ± 1.5
Description: as §2

[2] = Stresso-protective activity, motion stress in slowly rotating drum for 48 hours; type: in vivo, rats; settings: 48 h motion stress
Description: In evaluation of the stresso-protective activity of the compound according to the present invention as a model use was made of a procedure of depriving rats of sleep, meals and water in a slowly rotating drum (at the speed of 0.2 km/h).
The experiments were carried out on 42 nondescript male rats. In parallel experiments the antistress activity of butanedioic acid mono[(2-dimethylamino)ethyl ester] was studied; as the reference prepartion use was made of the prior art tranquilizer--diazepam which was used in the experiments for this very indication.
4 groups of animals were tested in parallel. Groups I and II were placed for 48 hours into a slowly rotating drum, groups III and IV were under normal conditions and were deprived only of meals and water. The compound according to the present invention and butanedioic acid mono[(2-dimethylamino)ethyl ester] were administered intraperitoneally in the dose of 10 mg/kg four times (2 times a day) in the volume of 2.5 ml/kg under the conditions of motion stress (Group I of the animals) and under normal conditions (Group III of animals). The control animals--Group II (active control) and Group IV (passive control) were given a physiological solution. The efficiency of the compound according to the present invention, of butanedioic acid mono[(2-dimethylamino)ethyl ester] and of diazepam was estimated on the basis of a set of characteristics showing the functional activity of the central nervous system, physical fitness and development of basic symptoms of the stress-syndrome.
The residence of control rats in a slowly-rotating drum over 48 hours results in a noticeable deterioration of all the studied characteristics, especially those of higher nervous activity (learning) and development of stress-syndrome. The state of control animals was characterized by lowering of the overall behavioural activity as determined by the "open-field" test (37±15%) with reference to the passive control level, by a reduction in the speed of development of a conventional avoiding response in an aqueous labyrinth (58±15%), by an increase in the number of mistakes during the teaching time (175±25%), lowering of the ultimate physical endurance as determined by the swimming-with-load test (the load is equal to 10% by mass of the body (70±17%), adrenal hypertrophy (146±16%), thymus atrophy (49±9%) and formation of ulcers on the stomach mucous membrane (5.25±1.0%).

[3] = test system: NAD-Ph--H2 --dehydrogenase; assay: Activity of NAD-Ph-H2-dehydrogenase in myocardium upon low-temperature treatment; type: in vivo, mice; settings: 2.5 hours at -14° C.; 80 mg/kg (invention) or 64 mg/kg (ester); control 72.1 ± 1.4
Description: as §2

[4] = Maximum duration of mice lifespan upon testing cold treatment (Le Blanc adaptation procedure); type: in vivo
Description: (§1) To elucidate the effect of the compound according to the present invention on the adaptation phenomenon, experiments on male mice with a body mass of 18-20 g were carried out in conformity with the Le Blanc procedure according to which the mice were placed into a cold chamber (at -17° C.) for 10 minutes ever hour over the period of 9-10 hours. After one day the maximum lifespan of the mice at -17° C. was assessed along with the content of glucose in blood and of glycogen in organs upon a predetermined cold treatment (2.5 hours a -14° C.). The compound according to the present invention and butanedioic acid mono[(2-dimethylamino)-ethyl ester] (in doses of 80 and 64 mg/kg respectively) were introduced immediately after a series of short-time cold effects. In a number of experiments the compound according to the present invention was administered 1 hour prior to the testing (2.5 h) cold effect.

Succinatedehydrogenase = assay: Activity of succinatedehydrogenase in myocardium upon low-temperature treatment; type: in vivo, mice; settings: 2.5 hours at -14° C.; 80 mg/kg (invention) or 64 mg/kg (ester); control 72.3 ± 1.6
Description: as §2

[5] = Survival of mice on acute cooling; type: in vivo
Description: The activity of the compound according to the present invention was studied in experiments on animals. The effectivemess of the compound according to the present invention was studied for resistance against an acute cold effect in comparison with conventional preparations such as butanedioic acid mono[(2-dimethylamino)ethyl ester] and sodium succinate.
The experiments were carried out on male mice (tetrahybdrids) with a body mass of 18-20 g which were placed into a cold chamber at a temperature of -15t to -17° C. in separate plastic cages slightly limiting their activity. […] The preparations were administered intraperiotoneally 1 hour before the cold effect the control animals were administered with a physiological solution.

[6] = Blood glucose and organ glycogen upon predetermined (2.5 h) cold treatment (adaptation experiment); type: in vivo, mice; settings: 2.5 h at -14° C.; for Glycogen, heart: control 1.7 ± 0.2; for Glycogen, liver: control 6.7 ± 0.4; for Blood glucose: control 37 ± 6
Description: as §1

[7] = Biochemical substrates in mice upon preset (2.5 hours) low-temperature treatment; settings: 2.5 hours at -14° C.
Description: as §2

Glutamatedehydrogenase = assay: Activity of glutamatedehydrogenase in myocardium upon low-temperature treatment; type: in vivo, mice; settings: 2.5 hours at -14° C.; 80 mg/kg (invention) or 64 mg/kg (ester); control 68.8 ± 1.5
Description: as §2

[8] = adaptation + preparation 1 hour before the testing effect
[9] = adaptation + preparation immediately after adaptation, 80 mg/kg (invention) or 64 mg/kg (ester)

Question: With CN(C)CCOC(=O)CCC(=O)O [Compound of this invention, butanedioic acid mono[(2-dimethylamino)ethyl ester]succinate] as the compound, how does the “Activity of glucose-6-phosphatedehydrogenase in myocardium” value [1] read?
Answer: Its value is 67.4 ± 1.5 relative units.

Question: And the “Activity of pyruvatedehydrogenase in myocardium” value (Pyruvatedehydrogenase)?
Answer: Its value is 68.9 ± 1.3 relative units.

Question: What about the “Activity of isocitratedehydrogenase in myocardium” value (Isocitratedehydrogenase) of the same compound?
Answer: The value was 60.4 ± 1.6 relative units.

Question: And the “Activity of NADH2-dehydrogenase in myocardium” value (NADH2 --dehydrogenase)?
Answer: Its value is 73.4 ± 2.0 relative units.

Question: What about the “formation of ulcers on the stomach mucous membrane” value [2] of the same compound?
Answer: Its value is 4.8±1.5%.

Question: And the “general behavioural activity compared with diazepam” value ([2]; in words)?
Answer: Its value is “substantially higher general behavioural activity”.

Question: And the “Weight coefficient of thymus” value ([2]; 10 mg/kg i.p. four times (invention, ester), control 0.95 ± 0.18, listed as compound of the present invention, 10 mg/kg)?
Answer: The value was 1.25 g/kg of the initial body mass.

Question: What about the “Weight coefficient of adrenal glands” value ([2]; 10 mg/kg i.p. four times (invention, ester), control 1.246 ± 0.028, listed as compound of the present invention, 10 mg/kg) of the same compound?
Answer: Its value is 1.83 g/kg of the initial body mass.

Question: And the “Number of attempts till reaching the learning criterion (water labyrinth)” value ([2]; 10 mg/kg i.p. four times (invention, ester), control 4.75 ± 0.5, listed as compound of the present invention, 10 mg/kg)?
Answer: The value was 2.75.

Question: And the “Number of ulcers on the stomach mucous membrane” value ([2]; 10 mg/kg i.p. four times (invention, ester), control 5.25 ± 1.0, listed as compound of the present invention, 10 mg/kg)?
Answer: The value was 2.5.

Question: And the Duration of swimming ([2]; 10 mg/kg i.p. four times (invention, ester), control 244 ± 26, listed as compound of the present invention, 10 mg/kg)?
Answer: Its Duration of swimming is 499 s.

Question: What about the total behavioural activity ([2]; open-field test, stressed control 37±15% of passive control) of the same compound?
Answer: Its total behavioural activity is 85±10%.

Question: What about the “higher nervous activity (protection)” value ([2]; stressed control 58±15% (avoiding response, aqueous labyrinth)) of the same compound?
Answer: Its value is 100±9%.

Question: What about the physical endurance ([2]; swimming-with-load test, stressed control 70±17%) of the same compound?
Answer: Its physical endurance is 143±28%.

Question: What about the “Activity of NAD-Ph-H2-dehydrogenase in myocardium” value [3] of the same compound?
Answer: The value was 85.9 ± 1.7 relative units.

Question: And the “Lifespan in hours (at -17° C.), preparation without adaptation” value ([4]; no adaptation, intact animals 3.4 ± 0.4)?
Answer: The value was 7.8 ± 0.3 h.

Question: And the “Lifespan in hours (at -17° C.), preliminary adaptation + preparation” value ([4]; with preliminary adaptation, 80 mg/kg (invention) or 64 mg/kg (ester), adaptation alone 6.0 ± 0.3, listed as compound of the present invention)?
Answer: Its value is 10.3 ± 0.6 h.

Question: And the “Activity of succinatedehydrogenase in myocardium” value (Succinatedehydrogenase)?
Answer: The value was 90.2 ± 1.8 relative units.

Question: What about the “Survival, %, 1 hour” value ([5]; 1 hour of cold at -15 to -17° C., i.p. 1 hour before, 80 mg/kg (invention), 64 mg/kg (ester), 17 mg/kg (sodium succinate)) of the same compound?
Answer: Its value is 100%.

Question: And the “Survival, %, 2 hours” value ([5]; 2 hours of cold at -15 to -17° C., i.p. 1 hour before, 80 mg/kg (invention), 64 mg/kg (ester), 17 mg/kg (sodium succinate))?
Answer: The value was 100%.

Question: What about the “Survival, %, 3 hours” value ([5]; 3 hours of cold at -15 to -17° C., i.p. 1 hour before, 80 mg/kg (invention), 64 mg/kg (ester), 17 mg/kg (sodium succinate)) of the same compound?
Answer: Its value is 100%.

Question: What about the “Survival, %, 4 hours” value ([5]; 4 hours of cold at -15 to -17° C., i.p. 1 hour before, 80 mg/kg (invention), 64 mg/kg (ester), 17 mg/kg (sodium succinate)) of the same compound?
Answer: The value was 90%.

Question: What about the “Survival, %, 5 hours” value ([5]; 5 hours of cold at -15 to -17° C., i.p. 1 hour before, 80 mg/kg (invention), 64 mg/kg (ester), 17 mg/kg (sodium succinate)) of the same compound?
Answer: Its value is 70%.

Question: What about the “Survival, %, 6 hours” value ([5]; 6 hours of cold at -15 to -17° C., i.p. 1 hour before, 80 mg/kg (invention), 64 mg/kg (ester), 17 mg/kg (sodium succinate)) of the same compound?
Answer: The value was 70%.

Question: And the “protective effect on survival at high dose” value ([5]; doses above 300 mg/kg)?
Answer: The value was “less pronounced”.

Question: What about the “Glycogen, heart” value [6, 8] of the same compound?
Answer: Its value is 2.6 ± 0.4 mg/g.

Question: And the “Glycogen, liver” value [6, 8]?
Answer: Its value is 11.7 ± 2.4 mg/g.

Question: And the Blood glucose [6, 8]?
Answer: The Blood glucose was 78 ± 6 mg. %.

Question: What about the “Glycogen, heart” value [6, 9] of the same compound?
Answer: Its value is 2.9 ± 0.2 mg/g.

Question: And the “Glycogen, liver” value [6, 9]?
Answer: The value was 18.2 ± 2.1 mg/g.

Question: And the Blood glucose [6, 9]?
Answer: Its Blood glucose is 88 ± 2 mg. %.

Question: And the Liver glycogen ([7]; 1 hour after 80 mg/kg (invention) or 64 mg/kg (ester), control 8.1 ± 0.6, intact 35.2 ± 4.5)?
Answer: The Liver glycogen was 9.8 ± 1.2 mg/kg.

Question: And the Blood glucose ([7]; 1 hour after 80 mg/kg (invention) or 64 mg/kg (ester), control 42 ± 4, intact 79 ± 3)?
Answer: Its Blood glucose is 80 ± 4 mg. %.

Question: And the Creatine phosphate ([7]; myocardium, 1 hour after 80 mg/kg (invention) or 64 mg/kg (ester), control 1.2 ± 0.08, intact 3.7 ± 0.3)?
Answer: The Creatine phosphate was 2.3 ± 0.1 μm/g.

Question: And the Adenosine monophosphate ([7]; myocardium, 1 hour after 80 mg/kg, control 0.45 ± 0.01, intact 0.51 ± 0.03)?
Answer: Its Adenosine monophosphate is 0.32 ± 0.02 μm/g.

Question: And the Adenosine diphosphate ([7]; myocardium, 1 hour after 80 mg/kg, control 0.49 ± 0.02, intact 0.78 ± 0.03)?
Answer: The Adenosine diphosphate was 0.86 ± 0.04 μm/g.

Question: What about the Adenosine triphosphoric acid ([7]; myocardium, 1 hour after 80 mg/kg, control 1.5 ± 0.1, intact 2.2 ± 0.3) of the same compound?
Answer: The Adenosine triphosphoric acid was 1.9 ± 0.2 μm/g.

Question: What about the “Activity of glutamatedehydrogenase in myocardium” value (Glutamatedehydrogenase) of the same compound?
Answer: The value was 78.3 ± 1.7 relative units.
